Test results from patent publication US10959992B2, “Methods of treatment of asthma and COPD” (Bridge Pharma, Inc., priority 2019, dated 2021).
≈ marks a conversion by molar mass, not a printed value. Read-outs that look alike come from different tables or passages of the source.

Legend:
human M-3 (hM3) receptor = human M-3 (hM3) receptor (Homo sapiens, UniProt P20309); experiment: Muscarinic M-3 receptor binding assay; details: calculated from mean values, as norketotifen free base; NK hydrogen fumarate tested in duplicates, 1.0E-08M to 1.0E-04M
From the text: The current study used human M-3 (hM3) receptor and NK hydrogen fumarate was the antagonist in the current studies. The study used NK in duplicates at five dose-levels from 1.0E-08M to 1.0E-04M.

[1] = tested on: Methicillin-resistant S. aureus; experiment: Antimicrobial activity (MIC), MRSA; assay type: cell-based; details: Staphylococcus aureus; Bacteria: MRSA; MIC refers to lethal concentrations
PAF-induced eosinophilia = experiment: PAF-induced pulmonary eosinophil accumulation after continuous subcutaneous dosing; assay type: in vivo, Sprague-Dawley rats; details: sc 1.0 mg/kg/day for six days, PAF-treated rats
Experimental: Male Sprague-Dawley rats, 400-600 g, were used in these studies.
The study described here used subcutaneous administration of norketotifen and ketotifen by Alzet® osmotic pumps. The rats were administered either RS-norketotifen hydrogen fumarate (1.0 mg/kg/day) or RS-ketotifen hydrogen fumarate (1.0 mg/kg/day) or saline. After five days of sc infusions of test articles and the vehicle, the animals were injected, i.p. with 10 μg PAF (platelet aggregating factor) in 0.25% bovine serum albumin (BSA) in saline. The subcutaneous infusions of test articles or vehicle were continued for another twenty-four hours and the animals were then sacrificed by intraperitoneal injections of a barbiturate. The tracheae of the euthanized animals were exposed and cannulated and aliquots (6×10 ml) of a Tyrode solution were successively introduced into the lungs and aspirated by gentle compression of the thorax. The total recovery of lung fluid was usually above 80%. The cell suspensions were concentrated by low speed centrifugation (200 g for 10 min) and the resulting cell pellet was resuspended in 1 ml of a Tyrode solution. Total cell counts were performed after dilution in Turks fluid, fixation in methanol and Leishman staining.
The study shown here used norketotifen, ketotifen, and saline (control) after continuous dosing with Alzet® Osmotic pumps.

sedation [2] = details: orally administered, dogs; U.S. Pat. No. 8,557,846; cited from earlier work
Candida albicans = experiment: Antimicrobial activity (MIC), Candida albicans; assay type: cell-based; details: Fungi: Ca, MIC refers to lethal concentrations
sedation [3] = details: art-accepted mouse model of sedation; U.S. Pat. Nos. 7,226,934 and 7,557,128; cited from earlier work
IL-6 = experiment: PHA-induced release of IL-6 from human buffy coats; assay type: cell-based; details: PHA 5 μg/ml, 16 hours, inhibition
Experimental: (§1) The study was conducted in two phases. The first phase included optimization of the test methodology and included also dose-range finding studies, using buffy coats from 3 human donors, stimulated with phytohemagglutinin (PHA). The concentrations of the test article and the duration of exposure were optimized to obtain acceptable dose-response ratios. Following optimization of the test conditions, a final protocol was issued. In the Main Study, buffy coats from 5 healthy human male donors were stimulated with PHA, 5 μg/ml.
(§2) The inhibitory effects of three concentrations of NK and one concentration of ketotifen were evaluated in the Main Study. The buffy coats were resuspended in assay media and were pre-incubated for 30 min with either vehicle/saline, ketotifen (10 μM) or norketotifen (1.0; 10 or 100 μM). Following these preincubations, the white blood cell suspensions were stimulated for 16 hours with PHA, 5 μg/ml. The cell system supernatants were then harvested and stored frozen.

Aspergillus fumigatus = experiment: Antimicrobial activity (MIC), Aspergillus fumigatus; assay type: cell-based; details: Fungi: Af, MIC refers to lethal concentrations
IL-10 = experiment: PHA-induced release of IL-10 from human buffy coats; assay type: cell-based; details: PHA 5 μg/ml, 16 hours, inhibition
Experimental: as §1, §2

TNF-α = experiment: PHA-induced release of TNF-α from human buffy coats; assay type: cell-based; details: PHA 5 μg/ml, 16 hours, inhibition
Experimental: as §1, §2

IL-13 = experiment: PHA-induced release of IL-13 from human buffy coats; assay type: cell-based; details: PHA 5 μg/ml, 16 hours, inhibition
Experimental: as §1, §2

Moraxella catarrhalis = experiment: Antimicrobial activity (MIC), Moraxella catarrhalis; assay type: cell-based; details: Bacteria: Mc, MIC refers to lethal concentrations
[4] = Plasma concentration after sc infusion (follow-up study); assay type: in vivo; details: Sprague-Dawley, rat, 1 mg/kg/day, after sc infusion of RS-norketotifen for 5 days, rats
IL-2 = experiment: PHA-induced release of IL-2 from human buffy coats; assay type: cell-based; details: PHA 5 μg/ml, 16 hours, inhibition
Experimental: as §1, §2

immune system = experiment: Repeat-dose toxicology studies, signs of immune system suppression; assay type: in vivo; details: repeat-dose toxicology studies: hematology, clinical chemistry, histopathology, organ and body weight indicators
[5] = Lung/plasma distribution of norketotifen in rats; assay type: in vivo, SPD rats; details: for Kp: male, SPD, rat, lung/plasma, 20 mg/kg/day; for Lung Concentration / Plasma Concentration: rats
Experimental: Groups of male SPD rats (200-230 g) were administered racemic norketotifen hydrogen Fumarate 20 mg/kg/day (=14.4 mg/kg/day of the free base) for 10 consecutive days. Lung and plasma samples were collected and prepared and the concentrations of RS-norketotifen were determined using a qualified LC-MS-MS analytical method. LLQ (Lowest Level of Quantification) was <0.5 ng/ml.

Streptococcus pneumoniae = experiment: Antimicrobial activity (MIC), Streptococcus pneumoniae; assay type: cell-based; details: Bacteria: Sp, MIC refers to lethal concentrations
[6] = Dose Day 4, once daily oral 14.4 mg/kg free base
[7] = Dose Day 7, once daily oral 14.4 mg/kg free base
[8] = Last dose + 24 hrs, once daily oral 14.4 mg/kg free base for 10 days
[9] = Last dose, Day 10, once daily oral 14.4 mg/kg free base

human M-3 (hM3) receptor, sequence (P20309 whole entry): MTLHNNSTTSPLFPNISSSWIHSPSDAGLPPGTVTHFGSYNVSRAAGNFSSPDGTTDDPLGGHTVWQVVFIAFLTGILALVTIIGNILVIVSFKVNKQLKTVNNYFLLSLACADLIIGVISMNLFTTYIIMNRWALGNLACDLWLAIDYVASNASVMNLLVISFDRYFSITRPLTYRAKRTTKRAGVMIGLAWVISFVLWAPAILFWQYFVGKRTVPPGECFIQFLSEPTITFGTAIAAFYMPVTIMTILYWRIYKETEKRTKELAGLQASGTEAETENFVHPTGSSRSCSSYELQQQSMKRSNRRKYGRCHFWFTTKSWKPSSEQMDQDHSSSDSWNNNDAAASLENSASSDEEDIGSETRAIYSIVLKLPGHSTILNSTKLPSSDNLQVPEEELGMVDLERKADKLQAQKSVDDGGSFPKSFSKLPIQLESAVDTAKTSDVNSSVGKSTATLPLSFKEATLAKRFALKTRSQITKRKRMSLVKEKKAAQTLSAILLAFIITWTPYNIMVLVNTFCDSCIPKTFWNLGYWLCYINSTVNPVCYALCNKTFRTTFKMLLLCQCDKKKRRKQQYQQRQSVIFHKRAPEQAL

## O=C1Cc2ccccc2C(=C2CCNCC2)c2ccsc21 (racemic) [norketotifen]
Human M-3 (hM3) receptor
  Ki: 2200 nM
[1]
  MIC: 2000 µg/mL (≈ 6770 µM)
PAF-induced eosinophilia
  Reduction of eosinophil counts below the baseline (saline control) level: 26%
Sedation [2]
  Sedative side effects: free from sedative side effects
Candida albicans
  MIC: 1000 µg/mL (≈ 3390 µM)
Sedation [3]
  Sedative effects: significant sedative effects
IL-6; 1 uM
  Effect on PHA-induced release of IL-6 (%): 0.00%
IL-6; 10 uM
  Effect on PHA-induced release of IL-6 (%): 33.13^1%
IL-6; 100 uM
  Effect on PHA-induced release of IL-6 (%): 88.16^1%
Aspergillus fumigatus
  MIC: 4000 µg/mL (≈ 13500 µM)
IL-10; 1 uM
  Effect on PHA-induced release of IL-10 (%): 12.71^2%
IL-10; 10 uM
  Effect on PHA-induced release of IL-10 (%): 24.80^2%
IL-10; 100 uM
  Effect on PHA-induced release of IL-10 (%): 90.40^1%
TNF-α; 1 uM
  Effect on PHA-induced release of TNF-α (%): 45.57^2%
TNF-α; 10 uM
  Effect on PHA-induced release of TNF-α (%): 63.07^1%
TNF-α; 100 uM
  Effect on PHA-induced release of TNF-α (%): 95.68^1%
IL-13; 1 uM
  Effect on PHA-induced release of IL-13 (%): 0.00%
IL-13; 10 uM
  Effect on PHA-induced release of IL-13 (%): 34.49^1%
IL-13; 100 uM
  Effect on PHA-induced release of IL-13 (%): 74.25^1%
Moraxella catarrhalis
  MIC: 250 µg/mL (≈ 846 µM)
Moraxella catarrhalis; Moraxella catarrhalis, read-out: MIC
  MIC: 250 µg/mL (≈ 846 µM)
[4]
  concentration at 5 days: 4 ± 0.24 ng/mL
IL-2; 1 uM
  Effect on PHA-induced release of IL-2 (%): 0.00%
IL-2; 10 uM
  Effect on PHA-induced release of IL-2 (%): 46.63^1%
IL-2; 100 uM
  Effect on PHA-induced release of IL-2 (%): 93.47^1%
Immune system
  Signs of immune system suppression: no signs of immune system suppression
[5]; oral, Dose Day 4, read-out: Lung/Plasma Ratio in Rats
  Kp: 133
[5]; oral, Dose Day 7, read-out: Lung/Plasma Ratio in Rats
  Kp: 92
[5]; oral, Last dose + 24 hrs, read-out: Lung/Plasma Ratio in Rats
  Kp: 107
[5]; oral, Last dose, Day 10, read-out: Lung/Plasma Ratio in Rats
  Kp: 79
[5]; po, mean of the four study days, oral dosing, read-out: Lung/Plasma Ratio in Rats, Mean ± SEM
  Kp: 103
[5]; mean of the four study days, oral dosing
  Lung/Plasma Ratio in Rats, Mean ± SEM: 100
[5]; mean of the four study days, oral dosing, listed as NK
  Lung/Plasma Ratio in Rats, Mean ± SEM: 103 ± 11.6
[5]; mean of the four study days, oral dosing, listed as RS-norketotifen
  Lung/Plasma Ratio in Rats, Mean ± SEM: ~100
[5]; [6]
  Lung Concentration: 23612 ng/g
  Plasma Concentration: 178 ng/mL
[5]; [7]
  Lung Concentration: 25355 ng/g
  Plasma Concentration: 276 ng/mL
[5]; [8]
  Lung Concentration: 890 ng/g
  Plasma Concentration: 8.3 ng/mL
[5]; [9]
  Lung Concentration: 18171 ng/g
  Plasma Concentration: 229 ng/mL
Streptococcus pneumoniae
  MIC: 500 µg/mL (≈ 1690 µM)
Streptococcus pneumoniae; Streptococcus pneumoniae, read-out: MIC
  MIC: 500 µg/mL (≈ 1690 µM)
